Experimental findings from patent US7737142B2, “(Thio) carbamoyl-cyclohexane derivatives as D3/D2 receptor antagonists” (Richter Gedeon Vegyeszeti Gyar Rt., priority 2003, dated 2010) are described below.

Series [1] addresses T1, rat recombinant D3 receptors (expressed in Sf9 cells) (Rattus norvegicus, UniProt P19020).
T1 construct: purchased Packard BioScience, BioSignal Packard Inc. 6110139; host or cells: Sf9 cells
In words: D3 receptor binding ([3H]-spiperone). The conditions noted are these: [3H]-spiperone 0.85 nM, read-out: D3 IC-50.

Series [2] concerns the target T2, D2 receptor (rat brain striatal membrane preparation) (Rattus norvegicus, UniProt P61169).
T2 construct: on rat brain striatal membrane preparation; from tissue; host or cells: rat brain striatum membranes
Briefly: D2 receptor binding ([3H]-spiperone). The conditions noted are these: rat brain striatal membranes, [3H]-spiperone 0.6 nM; read-out: D2 IC-50.
Description: The non-specific binding was determined in the presence of 1 μM (+)-butaclamol.

In series [3] the target is Alpha-1 receptor (rat brain cortical membrane preparation). In words: Alpha-1 receptor binding ([3H]-prasosin). The conditions noted are these: rat brain cortical membranes, [3H]-prasosin 0.5 nM; read-out: Alfa-1 IC-50.
Description: The non-specific binding was determined in the presence of 10 μM phentolamine.

T2 sequence (P61169 whole entry): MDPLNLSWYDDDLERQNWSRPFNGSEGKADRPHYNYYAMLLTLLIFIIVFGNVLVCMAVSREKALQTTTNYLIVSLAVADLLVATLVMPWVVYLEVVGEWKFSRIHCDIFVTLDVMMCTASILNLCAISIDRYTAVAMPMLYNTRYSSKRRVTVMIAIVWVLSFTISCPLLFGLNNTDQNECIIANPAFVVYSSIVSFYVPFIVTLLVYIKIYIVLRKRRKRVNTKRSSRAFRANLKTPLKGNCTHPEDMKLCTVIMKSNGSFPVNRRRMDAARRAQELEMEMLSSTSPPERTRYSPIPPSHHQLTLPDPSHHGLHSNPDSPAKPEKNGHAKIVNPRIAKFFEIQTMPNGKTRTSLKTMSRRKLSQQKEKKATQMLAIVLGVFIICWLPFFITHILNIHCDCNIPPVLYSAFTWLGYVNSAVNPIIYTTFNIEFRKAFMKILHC
T1 sequence (P19020 whole entry): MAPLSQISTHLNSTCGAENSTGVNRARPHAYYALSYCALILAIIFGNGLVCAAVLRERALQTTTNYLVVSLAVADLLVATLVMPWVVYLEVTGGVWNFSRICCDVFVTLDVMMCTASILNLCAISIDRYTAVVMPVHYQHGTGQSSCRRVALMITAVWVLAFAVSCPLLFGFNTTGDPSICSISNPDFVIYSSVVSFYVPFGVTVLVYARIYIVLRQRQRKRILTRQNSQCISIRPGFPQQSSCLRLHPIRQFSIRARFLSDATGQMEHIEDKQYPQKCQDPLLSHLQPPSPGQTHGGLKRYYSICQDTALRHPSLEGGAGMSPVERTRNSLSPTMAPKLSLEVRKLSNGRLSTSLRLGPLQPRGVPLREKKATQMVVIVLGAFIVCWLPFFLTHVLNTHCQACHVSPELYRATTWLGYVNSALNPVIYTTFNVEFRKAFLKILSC

On to `COc1cc(NC(=O)N[C@H]2CC[C@H](CCN3CCN(c4cccc(Cl)c4Cl)CC3)CC2)cc(OC)c1OC` [Compound 32, trans-1-(4-{2-[4-(2,3-Dichloro-phenyl)-piperazin-1-yl]-ethyl}cyclohexyl)-3-(3,4,5-trimethoxy-phenyl)-urea], for which the values for the IC50 in series [1], in series [2] and in series [3] were less than 1 nM, 10 to 50 nM and more than 200 nM, respectively.
For `CCN(CC)C(=O)N[C@H]1CC[C@H](CCN2CCN(c3cccc(Cl)c3Cl)CC2)CC1` [Compound 10, trans-1-{4-[2-[4-(2,3-dichlorophenyl)-piperazin-1-yl]-ethyl]-cyclohexyl}-3,3-diethyl-urea], the melting point (as a rule, the temperature of the solid-liquid transition) was in the range of 171 to 173 °C.
Consider `O=C(NC1CCCCC1)N[C@H]1CC[C@H](CCN2CCN(c3cccc(Cl)c3Cl)CC2)CC1` [Compound 33, trans-1-Cyclohexyl-3-(4-{2-[4-(2,3-dichloro-phenyl)-piperazin-1-yl]-ethyl}-cyclohexyl)-urea], for which the values for the IC50 in series [1] and in series [3] were less than 1 nM and more than 200 nM, respectively.
For the compound `O=C(N[C@H]1CC[C@H](CCN2CCN(c3cccc(Cl)c3Cl)CC2)CC1)N1CCCC1` [Compound 8, trans-N-{4-[2-[4-(2,3-dichlorophenyl)-piperazin-1-yl]-ethyl]-cyclohexyl}-pyrrolidine-1-carboxamide], the melting point lay within 201 to 203 °C. In series [1], the IC50 is less than 1 nM. Further, the IC50 in series [2] was 10 to 50 nM. Moreover, the IC50 in series [3] is more than 200 nM.
The corresponding values for `CC(C)NC(=O)N[C@H]1CC[C@H](CCN2CCN(c3cccc(Cl)c3Cl)CC2)CC1` [Compound 5, trans-1-{4-[2-[4-(2,3-dichlorophenyl)-piperazin-1-yl]-ethyl]-cyclohexyl}-3-isopropyl-urea] are 227 to 230 °C, less than 1 nM, 10 to 50 nM and more than 200 nM.
Turning to `O=C(Nc1ccccc1)N[C@H]1CC[C@H](CCN2CCN(c3cccc(Cl)c3Cl)CC2)CC1` [Compound 48, trans-1-(4-{2-[4-(2,3-Dichloro-phenyl)-piperazin-1-yl]-ethyl}-cyclohexyl)-3-phenyl-urea], the IC50 in series [1] was less than 1 nM; in series [2], 10 to 50 nM; in series [3], more than 200 nM.
The corresponding values for `O=C(N[C@H]1CC[C@H](CCN2CCCN(c3cccc(Cl)c3Cl)CC2)CC1)N1CCCC1` [Compound 9, trans-N-{4-[2-[4-(2,3-dichlorophenyl)-hexahydro[1,4]diazepin-1-yl]-ethyl]-cyclohexyl}-pyrrolidine-1-carboxamide] are less than 1 nM, 1 to 10 nM and more than 200 nM.
The like results for `COc1ccc(NC(=O)N[C@H]2CC[C@H](CCN3CCN(c4cccc(Cl)c4Cl)CC3)CC2)cc1` [Compound 50, trans-1-(4-{2-[4-(2,3-Dichloro-phenyl)-piperazin-1-yl]-ethyl}-cyclohexyl)-3-(4-methoxy-phenyl)-urea] were, in that order, less than 1 nM, 50 to 200 nM and more than 200 nM.
`CN(C)C(=O)N[C@H]1CC[C@H](CCN2CCCN(c3cccc(Cl)c3Cl)CC2)CC1` [Compound 7, trans-1-{4-[2-[4-(2,3-dichlorophenyl)-hexahydro[1,4]diazepin-1-yl]-ethyl]-cyclohexyl}-3,3-dimethyl-urea] yielded a melting point of 168 to 172 °C. In series [1], the IC50 fell in the range of 1 to 10 nM. Besides, in series [2], the IC50 lay within 10 to 50 nM. Also, the IC50 in series [3] is more than 200 nM.
On to `CCOC(=O)CNC(=O)N[C@H]1CC[C@H](CCN2CCN(c3cccc(Cl)c3Cl)CC2)CC1` [Compound 51, trans-[3-(4-{2-[4-(2,3-Dichloro-phenyl)-piperazin-1-yl]-ethyl}-cyclohexyl)-ureido]-acetic acid ethyl ester], for which the IC50 in series [1] was less than 1 nM; in series [2] it was 10 to 50 nM; in series [3] it was more than 200 nM.
Take `COC(=O)C(NC(=O)N[C@H]1CC[C@H](CCN2CCN(c3cccc(Cl)c3Cl)CC2)CC1)C(C)C` (relative stereo) [Compound 29, trans-2-[3-(4-{2-[4-(2,3-Dichloro-phenyl)-piperazin-1-yl]-ethyl}-cyclohexyl)-ureido]-3-methyl-butyric acid methyl ester]: the IC50 in series [1] is 1 to 10 nM; in series [3] it was more than 200 nM.
On to `CN1CCN(C(=O)N[C@H]2CC[C@H](CCN3CCN(c4cccc(Cl)c4Cl)CC3)CC2)CC1` [Compound 15, trans-N-{4-[2-[4-(2,3-dichlorophenyl)-piperazin-1-yl]-ethyl]-cyclohexyl}-4-methyl-piperazine-1-carboxamide], for which the melting point was 166 to 168 °C.
With `O=C(N[C@H]1CC[C@H](CCN2CCN(c3cccc(Cl)c3Cl)CC2)CC1)N1CCOCC1` [Compound 16, trans-N-{4-[2-[4-(2,3-dichlorophenyl)-piperazin-1-yl]-ethyl]-cyclohexyl}-morpholine-4-carboxamide], the melting point lay within 201 to 203 °C. Besides, in series [1], the IC50 is less than 1 nM. For the same compound, the IC50 in series [3] was more than 200 nM.
On to `CC(C)(C)NC(=O)N[C@H]1CC[C@H](CCN2CCN(c3cccc(Cl)c3Cl)CC2)CC1` [Compound 47, trans-1-tert-Butyl-3-(4-{2-[4-(2,3-dichloro-phenyl)-piperazin-1-yl]-ethyl}-cyclohexyl)-urea], for which the values for the IC50 in series [1] and in series [3] were less than 1 nM and more than 200 nM, respectively.
`CCNC(=O)N[C@H]1CC[C@H](CCN2CCN(c3cccc(Cl)c3Cl)CC2)CC1` [Compound 2, Trans-1-{4-[2-[4-(2,3-dichlorophenyl)-piperazin-1-yl]-ethyl]-cyclohexyl}-3-ethyl-urea]: the melting point fell in the range of 235 to 238 °C. Further, the IC50 in series [1] was less than 1 nM. In addition, the IC50 in series [3] is more than 200 nM.
`O=C(NCc1ccccc1)N[C@H]1CC[C@H](CCN2CCN(c3cccc(Cl)c3Cl)CC2)CC1` [Compound 49, trans-1-Benzyl-3-(4-{2-[4-(2,3-dichloro-phenyl)-piperazin-1-yl]-ethyl}-cyclohexyl)-urea]: the figures for the IC50 in series [1], in series [2] and in series [3] were less than 1 nM, 50 to 200 nM and more than 200 nM, respectively.
The corresponding values for `C=CCNC(=O)N[C@H]1CC[C@H](CCN2CCN(c3cccc(Cl)c3Cl)CC2)CC1` [Compound 21, trans-1-Allyl-3-(4-{2-[4-(2,3-dichloro-phenyl)-piperazin-1-yl]-ethyl}-cyclohexyl)-urea] are less than 1 nM, 10 to 50 nM and more than 200 nM.
The like results for `CCOC(=O)CNC(=S)N[C@H]1CC[C@H](CCN2CCN(c3cccc(Cl)c3Cl)CC2)CC1` [Compound 44, trans-[3-(4-{2-[4-(2,3-Dichloro-phenyl)-piperazin-1-yl]-ethyl}-cyclohexyl)-thioureido]-acetic acid ethyl ester] were, in that order, less than 1 nM, 10 to 50 nM and more than 200 nM.
`N#Cc1cccc(NC(=O)N[C@H]2CC[C@H](CCN3CCN(c4cccc(Cl)c4Cl)CC3)CC2)c1` [Compound 31, trans-1-(3-Cyano-phenyl)-3-(4-{2-[4-(2,3-dichloro-phenyl)-piperazin-1-yl]-ethyl}-cyclohexyl)-urea]: the IC50 in series [1] is less than 1 nM; in series [3], more than 200 nM.
On to `CC(C)(C)NC(=S)N[C@H]1CC[C@H](CCN2CCN(c3cccc(Cl)c3Cl)CC2)CC1` [Compound 38, trans-1-tert-Butyl-3-(4-{2-[4-(2,3-dichloro-phenyl)-piperazin-1-yl]-ethyl}-cyclohexyl)-thiourea], for which the IC50 in series [1] was 1 to 10 nM; in series [2], 10 to 50 nM; in series [3] it was more than 200 nM.
Compound `O=C(N[C@H]1CC[C@H](CCN2CCN(c3cccc(Cl)c3Cl)CC2)CC1)N1CCCCC1` [Compound 17, trans-N-{4-[2-[4-(2,3-dichlorophenyl)-piperazin-1-yl]-ethyl]-cyclohexyl}-piperidine-1-carboxamide] had a melting point of 188 to 190 °C.
On the same count and under the same terms, the result for `CCN(C)C(=O)N[C@H]1CC[C@H](CCN2CCN(c3cccc(Cl)c3Cl)CC2)CC1` [Compound 11, trans-1-{4-[2-[4-(2,3-dichlorophenyl)-piperazin-1-yl]-ethyl]-cyclohexyl}-3-ethyl-3-methyl-urea] reads 195 to 198 °C.
The same measure, in the same setting: then `O=C(N[C@H]1CC[C@H](CCN2CCN(c3cccc(Cl)c3Cl)CC2)CC1)N1CCNCC1` [Compound 14, trans-N-{4-[2-[4-(2,3-dichlorophenyl)-piperazin-1-yl]-ethyl]-cyclohexyl}-piperazine-1-carboxamide], with 293 to 296 °C.
Consider `CCCCNC(=O)N[C@H]1CC[C@H](CCN2CCN(c3cccc(Cl)c3Cl)CC2)CC1` [Compound 24, trans-1-Butyl-3-(4-{2-[4-(2,3-dichloro-phenyl)-piperazin-1-yl]-ethyl}-cyclohexyl)-urea], for which the IC50 in series [1] is less than 1 nM; in series [2], 10 to 50 nM; in series [3] it was more than 200 nM.
The corresponding values for `CCCNC(=S)N[C@H]1CC[C@H](CCN2CCN(c3cccc(Cl)c3Cl)CC2)CC1` [Compound 42, trans-1-(4-{2-[4-(2,3-Dichloro-phenyl)-piperazin-1-yl]-ethyl}-cyclohexyl)-3-propyl-thiourea] are less than 1 nM, 10 to 50 nM and more than 200 nM.
For `O=C(N[C@H]1CC[C@H](CCN2CCN(c3cccc(Cl)c3Cl)CC2)CC1)N1CCC(O)CC1` [Compound 18, trans-N-{4-[2-[4-(2,3-dichlorophenyl)-piperazin-1-yl]-ethyl]-cyclohexyl}-4-hydroxy-piperidine-1-carboxamide], the melting point lay within 178 to 180 °C.
On to `CCNC(=S)N[C@H]1CC[C@H](CCN2CCN(c3cccc(Cl)c3Cl)CC2)CC1` [Compound 45, trans-1-(4-{2-[4-(2,3-Dichloro-phenyl)-piperazin-1-yl]-ethyl}-cyclohexyl)-3-ethyl-thiourea], for which the figures for the IC50 in series [1], in series [2] and in series [3] were less than 1 nM, 10 to 50 nM and more than 200 nM, respectively.
